This note sets out measurements from patent publication US20250108038A1 (priority 2023, published 2025).

pIC50: −log10 of the molar value. Read-outs that look alike come from different tables or passages of the source.

In one data set the target is CYP3A4 (Homo sapiens, UniProt P08684). To be noted: for Inhibition at Highest Test Article Concentration: 3A4, at 50 μM; for IC50: pooled human liver microsomes, 30 min. For orientation: Liver microsomes are vesicles of endoplasmic reticulum, rich in cytochrome P450 enzymes.
In the next data set the target is T1, CYP1A2 (Homo sapiens, UniProt P05177).
T1 sequence (P05177 1-516): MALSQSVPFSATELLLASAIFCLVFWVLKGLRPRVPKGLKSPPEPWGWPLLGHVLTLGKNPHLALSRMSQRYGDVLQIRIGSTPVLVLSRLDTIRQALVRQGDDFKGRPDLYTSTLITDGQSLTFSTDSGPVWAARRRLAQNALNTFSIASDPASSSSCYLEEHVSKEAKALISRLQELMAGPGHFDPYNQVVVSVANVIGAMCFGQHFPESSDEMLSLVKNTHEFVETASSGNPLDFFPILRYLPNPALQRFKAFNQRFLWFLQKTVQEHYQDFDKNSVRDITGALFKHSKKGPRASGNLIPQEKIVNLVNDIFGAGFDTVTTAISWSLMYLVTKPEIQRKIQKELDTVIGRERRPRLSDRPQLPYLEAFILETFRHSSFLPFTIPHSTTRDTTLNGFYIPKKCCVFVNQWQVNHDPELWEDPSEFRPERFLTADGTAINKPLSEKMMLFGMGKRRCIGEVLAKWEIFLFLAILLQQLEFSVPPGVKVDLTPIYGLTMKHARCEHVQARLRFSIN

Another data set concerns the target T2, CYP2B6 (Homo sapiens, UniProt P20813).
T2 sequence (P20813 1-491): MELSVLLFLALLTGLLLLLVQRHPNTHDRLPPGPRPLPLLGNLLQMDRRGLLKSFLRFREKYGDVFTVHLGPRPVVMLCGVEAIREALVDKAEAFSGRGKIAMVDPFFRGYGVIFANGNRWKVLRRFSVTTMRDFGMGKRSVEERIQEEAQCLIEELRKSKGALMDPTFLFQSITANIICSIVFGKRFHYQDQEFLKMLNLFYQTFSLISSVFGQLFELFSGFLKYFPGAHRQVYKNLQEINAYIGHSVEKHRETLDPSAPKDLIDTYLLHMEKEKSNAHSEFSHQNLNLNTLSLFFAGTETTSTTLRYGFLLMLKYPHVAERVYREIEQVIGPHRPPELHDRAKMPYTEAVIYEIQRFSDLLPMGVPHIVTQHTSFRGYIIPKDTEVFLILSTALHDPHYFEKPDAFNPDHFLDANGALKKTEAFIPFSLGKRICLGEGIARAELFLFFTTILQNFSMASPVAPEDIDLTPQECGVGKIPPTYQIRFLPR

Chain of CYP3A4 (P08684 whole entry): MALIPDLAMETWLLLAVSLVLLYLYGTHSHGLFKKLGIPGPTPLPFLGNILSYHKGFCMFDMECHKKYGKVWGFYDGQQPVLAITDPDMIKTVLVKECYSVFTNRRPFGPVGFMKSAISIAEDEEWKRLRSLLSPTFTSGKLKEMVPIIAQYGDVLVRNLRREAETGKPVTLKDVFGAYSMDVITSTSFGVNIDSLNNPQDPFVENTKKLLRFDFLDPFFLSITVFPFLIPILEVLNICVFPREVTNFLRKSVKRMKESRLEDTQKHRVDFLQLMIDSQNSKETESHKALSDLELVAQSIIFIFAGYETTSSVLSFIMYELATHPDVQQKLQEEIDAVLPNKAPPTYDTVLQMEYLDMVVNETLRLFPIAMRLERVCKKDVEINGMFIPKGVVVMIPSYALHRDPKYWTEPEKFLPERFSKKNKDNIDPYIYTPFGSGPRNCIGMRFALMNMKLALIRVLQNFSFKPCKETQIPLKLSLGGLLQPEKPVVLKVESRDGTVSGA

What is called pIC50 is the IC50 on a negative log10 scale, so that one unit is a factor of ten. A higher pIC50 goes with a small IC50. For the compound `Clc1ccc(C2(OCC3OCCO3)c3ccccc3C3=NCCN32)cc1` (centres unmarked) [Compound I-19], the “Inhibition at Highest Test Article Concentration” value came out at 28.4 at 50 μM % at CYP3A4 (Midazolam); 57.5 at 50 μM % at CYP3A4 (Testosterone); 18.2 at 50 μM % at CYP1A2 (1A2, Phenacetin, at 50 μM); 77.2 at 50 μM % on CYP2B6 (2B6, Bupropion, at 50 μM). Further, the IC50 result against CYP3A4 (substrate midazolam) was “did not inhibit”; at CYP3A4 (substrate testosterone) it was “did not inhibit”; on CYP1A2 (pooled human liver microsomes, 30 min), “did not inhibit”. The pIC50 against CYP2B6 (microsomes) is 5.13.
